The assay deals with BDF1 mice, P388 leukemia ip, median survival T/C. Description: NCI In Vivo Anticancer Drug Screen. Data for tumor model P388 Leukemia (intraperitoneal) in B6D2F1 (BDF1) mice. To be noted: endpoint: median survival time, higher = longer survival. The method in brief: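 Survival ratio, drug arm over vehicle arm, in mice with a transplanted tumour.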
The mark [1] stands for this setting: dose: 50.0 mg/kg/injection, schedule: Q01DX009 (ip), vehicle: Klucel (hydroxypropylcellulose) (HPC).
The mark [2] stands for this setting: dose: 50.0 mg/kg/injection, schedule: Q01DX009 (ip), vehicle: saline with Tween-80.
[3] abbreviates: dose: 100.0 mg/kg/injection, schedule: Q01DX009 (ip), vehicle: saline with Tween-80.
[4] abbreviates: dose: 12.5 mg/kg/injection, schedule: Q01DX009 (ip), vehicle: saline.
The mark [5] stands for this setting: dose: 25.0 mg/kg/injection, schedule: Q01DX009 (ip), vehicle: saline.
The mark [6] stands for this setting: dose: 50.0 mg/kg/injection, schedule: Q01DX009 (ip), vehicle: saline.
Where [7] appears, read: dose: 200.0 mg/kg/injection, schedule: Q01DX009 (ip), vehicle: saline with Tween-80.

Several values for one entry are separate records, joined by “and”; a condition that tells them apart may be missing. Equal values may be shown once. Toxic doses and inconclusive results are not listed.

For `C=C/C=C/CCC(=O)C=[N+]=[N-]`, the T/C (dose: 50.0 mg/kg/injection, schedule: Q01DX005 (ip), vehicle: saline with Tween-80) was 91 % of control; the T/C (dose: 100.0 mg/kg/injection, schedule: Q01DX005 (ip), vehicle: saline with Tween-80) was 97 % of control; the T/C (dose: 200.0 mg/kg/injection, schedule: Q01DX005 (ip), vehicle: saline with Tween-80) is 101 % of control.
As to `C/C=C1\CN(C)[C@H]2Cc3c([nH]c4ccccc34)[C@@H](c3cc4[nH]c5c(c4cc3OC)CCN3C[C@H]4C[C@H](CC)[C@H]3[C@@]5(C(=O)OC)C4)C[C@H]1C2C(=O)OC` (stereo not given in full), the T/C (dose: 5.0 mg/kg/injection, schedule: Q01DX010 (ip), vehicle: water) was 90 % of control; the T/C (dose: 10.0 mg/kg/injection, schedule: Q01DX010 (ip), vehicle: water) is 109 % of control; the T/C (dose: 20.0 mg/kg/injection, schedule: Q01DX010 (ip), vehicle: water) is 118 % of control.
Take `CC(C)(C)c1ccc(OCCCOc2ccc(C(=O)O)cc2)cc1`: the T/C is, setting by setting: (dose: 12.5 mg/kg/injection, schedule: Q04DX003 (ip), vehicle: saline sonified) 95 % of control; (dose: 25.0 mg/kg/injection, schedule: Q04DX003 (ip), vehicle: saline sonified) 95 % of control; (dose: 50.0 mg/kg/injection, schedule: Q04DX003 (ip), vehicle: saline sonified) 91 % of control.
Turning to `CCP(CC)c1ccccc1`, the T/C reads like this: (dose: 100.0 mg/kg/injection, schedule: Q01DX009 (sc), vehicle: olive oil, sesame oil, peanut oil) 96 % of control; (dose: 100.0 mg/kg/injection, schedule: Q04DX003 (sc), vehicle: olive oil, sesame oil, peanut oil) 92 % of control; (dose: 200.0 mg/kg/injection, schedule: Q01DX009 (sc), vehicle: olive oil, sesame oil, peanut oil) 96 % of control; (dose: 200.0 mg/kg/injection, schedule: Q04DX003 (sc), vehicle: olive oil, sesame oil, peanut oil) 100 % of control; (dose: 400.0 mg/kg/injection, schedule: Q01DX009 (sc), vehicle: olive oil, sesame oil, peanut oil) 88 % of control; (dose: 400.0 mg/kg/injection, schedule: Q04DX003 (sc), vehicle: olive oil, sesame oil, peanut oil) 92 % of control.
Regarding `CC1(C)N=C(N)N=C(N)N1c1ccc(OCCOc2ccc(S(=O)(=O)F)cc2)c(Cl)c1`, the T/C was 158 % of control (dose: 12.5 mg/kg/injection, schedule: Q04DX003 (ip), vehicle: saline with Tween-80); 160 % of control (dose: 13.0 mg/kg/injection, schedule: Q04DX003 (ip), vehicle: saline with Tween-80); 185 % of control (dose: 20.0 mg/kg/injection, schedule: Q04DX003 (ip), vehicle: saline with Tween-80); 170 % of control (dose: 25.0 mg/kg/injection, schedule: Q04DX003 (ip), vehicle: saline with Tween-80); 185 % of control (dose: 30.0 mg/kg/injection, schedule: Q04DX003 (ip), vehicle: saline with Tween-80); 227 % of control (dose: 33.0 mg/kg/injection, schedule: Q01DX009 (ip), vehicle: Klucel (hydroxypropylcellulose) (HPC)). The T/C is 154 % of control under setting [1]; 268 % of control under setting [2]; 154 % of control and 162 % of control (dose: 50.0 mg/kg/injection, schedule: Q04DX003 (ip), vehicle: saline with Tween-80); 180 % of control (dose: 66.0 mg/kg/injection, schedule: Q04DX003 (ip), vehicle: saline with Tween-80); 163 % of control (dose: 75.0 mg/kg/injection, schedule: Q01DX009 (ip), vehicle: Klucel (hydroxypropylcellulose) (HPC)); 170 % of control (dose: 75.0 mg/kg/injection, schedule: Q04DX003 (ip), vehicle: saline with Tween-80). Further, the T/C reads like this: under setting [3], 90 % of control; (dose: 100.0 mg/kg/injection, schedule: Q04DX003 (ip), vehicle: saline with Tween-80) 180 % of control; (dose: 150.0 mg/kg/injection, schedule: Q04DX003 (ip), vehicle: saline with Tween-80) 232 % of control; (dose: 200.0 mg/kg/injection, schedule: Q04DX003 (ip), vehicle: saline with Tween-80) 108 % of control.
As to `CC(=O)NC(CO)(CO)CO`, the T/C by setting is: (dose: 100.0 mg/kg/injection, schedule: Q01DX001 (ip), vehicle: saline) 100 % of control; (dose: 200.0 mg/kg/injection, schedule: Q01DX001 (ip), vehicle: saline) 95 % of control.
Consider `[O-][Cl+3]([O-])([O-])O.[O-][n+]1c2ccccc2nc2ccccc21.[Zn+2]`, for which, under setting [2], the T/C was 123 % of control.
As for `CC1OC2CC(=O)OC2C2=C1C(=O)c1c(O)c3c(c(O)c1C2=O)C1CC(O)C3(O)C(C)O1` (stereo not given), the T/C reads like this: (dose: 2.5 mg/kg/injection, schedule: Q01DX010 (ip), vehicle: saline) 115 % of control; (dose: 5.0 mg/kg/injection, schedule: Q01DX010 (ip), vehicle: saline) 115 % of control; (dose: 10.0 mg/kg/injection, schedule: Q01DX010 (ip), vehicle: saline) 115 % of control.
Take `O=c1ccc2ccccc2o1`: the T/C is 100 % of control (dose: 50.0 mg/kg/injection, schedule: Q01DX010 (ip), vehicle: saline); 90 % of control (dose: 100.0 mg/kg/injection, schedule: Q01DX010 (ip), vehicle: saline); 90 % of control (dose: 200.0 mg/kg/injection, schedule: Q01DX010 (ip), vehicle: saline); 95 % of control (dose: 400.0 mg/kg/injection, schedule: Q01DX010 (ip), vehicle: saline).
As for `Cc1cc(O)c2c3c(ccc2c1)C(=O)c1c(O)cccc1C3=O`, the T/C (dose: 0.5 mg/kg/injection, schedule: Q01DX009 (ip), vehicle: Klucel (hydroxypropylcellulose) (HPC)) was 109 % of control; the T/C (dose: 1.0 mg/kg/injection, schedule: Q01DX009 (ip), vehicle: Klucel (hydroxypropylcellulose) (HPC)) was 110 % of control; the T/C (dose: 2.0 mg/kg/injection, schedule: Q01DX009 (ip), vehicle: Klucel (hydroxypropylcellulose) (HPC)) is 101 % of control; the T/C (dose: 4.0 mg/kg/injection, schedule: Q01DX009 (ip), vehicle: Klucel (hydroxypropylcellulose) (HPC)) is 101 % of control.
As for `O=C1c2ccccc2C(=O)C(N2CCOCC2)C1Cl` (stereo not given), the T/C reads like this: (dose: 3.0 mg/kg/injection, schedule: Q01DX009 (ip), vehicle: saline with Tween-80) 98 % of control; (dose: 6.0 mg/kg/injection, schedule: Q01DX009 (ip), vehicle: saline with Tween-80) 97 % of control; (dose: 12.0 mg/kg/injection, schedule: Q01DX009 (ip), vehicle: saline with Tween-80) 100 % of control.
For the compound `CC12CCC3C(CCC4=CC(O)CCC43C=O)C1(O)CCC2c1ccc(=O)oc1` (stereo not given), the T/C reads like this: (dose: 0.11 mg/kg/injection, schedule: Q01DX009 (ip), vehicle: saline + alcohol) 100 % of control; (dose: 0.33 mg/kg/injection, schedule: Q01DX009 (ip), vehicle: saline + alcohol) 95 % of control; (dose: 1.0 mg/kg/injection, schedule: Q01DX009 (ip), vehicle: saline + alcohol) 95 % of control; (dose: 3.0 mg/kg/injection, schedule: Q01DX010 (ip), vehicle: carboxymethylcellulose (CMC)) 95 % of control.
Regarding `CC1Cc2ccccc2SC1(C)C` (stereo not given), the T/C was 101 % of control under setting [4], 114 % of control under setting [5] and 115 % of control under setting [6].
In the case of `Nc1nc(N)c2c(n1)CCC(S(=O)(=O)c1ccc3ccccc3c1)C2` (stereo not given), the T/C is, setting by setting: under setting [2], 103 % of control and 114 % of control; under setting [3], 122 % of control and 124 % of control; under setting [7], 123 % of control.
On to `O=C1NC(C2CC3C=CC2C3)Nc2ccccc21` (stereo not given), for which the T/C reads like this: (dose: 12.5 mg/kg/injection, schedule: Q01DX009 (ip), vehicle: Klucel (hydroxypropylcellulose) (HPC)) 104 % of control; (dose: 12.5 mg/kg/injection, schedule: Q04DX003 (ip), vehicle: Klucel (hydroxypropylcellulose) (HPC)) 100 % of control; (dose: 25.0 mg/kg/injection, schedule: Q01DX009 (ip), vehicle: Klucel (hydroxypropylcellulose) (HPC)) 104 % of control; (dose: 25.0 mg/kg/injection, schedule: Q04DX003 (ip), vehicle: Klucel (hydroxypropylcellulose) (HPC)) 86 % of control; under setting [1], 95 % of control.
Regarding `COc1cc2ccc3ccncc3c2cc1OC`, the T/C under setting [4] is 95 % of control; the T/C under setting [5] is 100 % of control; the T/C (dose: 25.0 mg/kg/injection, schedule: Q04DX003 (ip), vehicle: saline) is 95 % of control; the T/C under setting [6] was 90 % of control; the T/C (dose: 50.0 mg/kg/injection, schedule: Q04DX003 (ip), vehicle: saline) was 113 % of control; the T/C (dose: 100.0 mg/kg/injection, schedule: Q04DX003 (ip), vehicle: saline) was 86 % of control.
For the compound `N#Cc1ccccc1CC(O)(c1ccccc1)c1ccccn1` (stereo not given), the T/C under setting [2] is 100 % of control, the T/C under setting [3] was 103 % of control and the T/C under setting [7] was 115 % of control.
For `CCCCCCCCCOCC1CO1` (stereo not given) the same measures were 111 % of control, 110 % of control and 101 % of control.

(Values after PubChem BioAssay AID328 (DTP/NCI, 2004).)
